Test results from PubChem BioAssay (NCI).
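Growth conditions: 96-well plates. Treatment: test compound, 48 hours, 5 concentrations. Analysis: linear interpolation between bracketing concentrations; unreached endpoints set to highest concentration. GI50: concentration for 50% inhibition of growth. TGI is the concentration that stops growth completely.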

Assays:
Assay in all cases: NCI tumour cell line growth inhibition, 48 h
786-0 renal = tested on: 786-0 renal
A498 renal = tested on: A498 renal
A549 NSCLC = tested on: A549 NSCLC
ACHN renal = tested on: ACHN renal
BT-549 breast = tested on: BT-549 breast
CAKI-1 renal = tested on: CAKI-1 renal
COLO 205 colon = tested on: COLO 205 colon
DU-145 prostate = tested on: DU-145 prostate
EKVX NSCLC = tested on: EKVX NSCLC
HCC-2998 colon = tested on: HCC-2998 colon
HCT-116 colon = tested on: HCT-116 colon
HCT-15 colon = tested on: HCT-15 colon
HOP-62 NSCLC = tested on: HOP-62 NSCLC
HOP-92 NSCLC = tested on: HOP-92 NSCLC
HS 578T breast = tested on: HS 578T breast
HT29 colon = tested on: HT29 colon
IGROV1 ovarian = tested on: IGROV1 ovarian
K-562 leukemia = tested on: K-562 leukemia
KM12 colon = tested on: KM12 colon
LOX IMVI melanoma = tested on: LOX IMVI melanoma
M14 melanoma = tested on: M14 melanoma
MALME-3M melanoma = tested on: MALME-3M melanoma
MCF7 breast = tested on: MCF7 breast
MDA-MB-231 breast = tested on: MDA-MB-231 breast
MDA-MB-435 = tested on: MDA-MB-435
MDA-N = tested on: MDA-N
MOLT-4 leukemia = tested on: MOLT-4 leukemia
NCI-H226 lung = tested on: NCI-H226 lung
NCI-H23 lung = tested on: NCI-H23 lung
NCI-H460 lung = tested on: NCI-H460 lung
NCI-H522 lung = tested on: NCI-H522 lung
NCI/ADR-RES ovarian = tested on: NCI/ADR-RES ovarian
OVCAR-3 ovarian = tested on: OVCAR-3 ovarian
OVCAR-4 ovarian = tested on: OVCAR-4 ovarian
OVCAR-5 ovarian = tested on: OVCAR-5 ovarian
OVCAR-8 ovarian = tested on: OVCAR-8 ovarian
PC-3 prostate = tested on: PC-3 prostate
RPMI-8226 leukemia = tested on: RPMI-8226 leukemia
RXF 393 renal = tested on: RXF 393 renal
SF-268 CNS = tested on: SF-268 CNS
SF-295 CNS = tested on: SF-295 CNS
SF-539 CNS = tested on: SF-539 CNS
SK-MEL-2 melanoma = tested on: SK-MEL-2 melanoma
SK-MEL-28 melanoma = tested on: SK-MEL-28 melanoma
SK-MEL-5 melanoma = tested on: SK-MEL-5 melanoma
SK-OV-3 ovarian = tested on: SK-OV-3 ovarian
SN12C renal = tested on: SN12C renal
SNB-19 CNS = tested on: SNB-19 CNS
SNB-75 CNS = tested on: SNB-75 CNS
SW-620 colon = tested on: SW-620 colon
T-47D breast = tested on: T-47D breast
TK-10 renal = tested on: TK-10 renal
U251 CNS = tested on: U251 CNS
UACC-257 melanoma = tested on: UACC-257 melanoma
UACC-62 melanoma = tested on: UACC-62 melanoma
UO-31 renal = tested on: UO-31 renal

COc1cccc(-c2cc3c4c(nc5ccccc53)C(=O)c3cccnc3-c4n2)c1
GI50 (786-0 renal): 2.03 µM
TGI (786-0 renal): 4.48 µM
GI50 (A498 renal): 14.1 µM
TGI (A498 renal): 29.5 µM
GI50 (A549 NSCLC): 1.44 µM
TGI (A549 NSCLC): 3.82 µM
GI50 (ACHN renal): 2.21 µM
TGI (ACHN renal): 9.82 µM
GI50 (BT-549 breast): 10.6 µM
TGI (BT-549 breast): 28.1 µM
GI50 (CAKI-1 renal): 3.36 µM
TGI (CAKI-1 renal): 11.5 µM
GI50 (COLO 205 colon): 5.56 µM
TGI (COLO 205 colon): 10.9 µM
GI50 (DU-145 prostate): 1.67 µM
TGI (DU-145 prostate): 3.13 µM
GI50 (EKVX NSCLC): 3.98 µM
TGI (EKVX NSCLC): 14.2 µM
GI50 (HCC-2998 colon): 2.2 µM
TGI (HCC-2998 colon): 4.61 µM
GI50 (HCT-116 colon): 1.3 µM
TGI (HCT-116 colon): 5.75 µM
GI50 (HCT-15 colon): 1.52 µM
TGI (HCT-15 colon): 4.44 µM
GI50 (HOP-62 NSCLC): 4.2 µM
TGI (HOP-62 NSCLC): 12.3 µM
GI50 (HOP-92 NSCLC): 4.3 µM
TGI (HOP-92 NSCLC): 19.8 µM
GI50 (HS 578T breast): 3.18 µM
TGI (HS 578T breast): 11.2 µM
GI50 (HT29 colon): 2.49 µM
TGI (HT29 colon): 6.19 µM
GI50 (IGROV1 ovarian): 3.37 µM
TGI (IGROV1 ovarian): 14.4 µM
GI50 (K-562 leukemia): 1.82 µM
TGI (K-562 leukemia): > 100 µM
GI50 (KM12 colon): 1.54 µM
TGI (KM12 colon): 3.75 µM
GI50 (LOX IMVI melanoma): 2.31 µM
TGI (LOX IMVI melanoma): > 100 µM
GI50 (M14 melanoma): 0.863 µM
TGI (M14 melanoma): 2.36 µM
GI50 (MALME-3M melanoma): 0.822 µM
TGI (MALME-3M melanoma): 3.32 µM
GI50 (MCF7 breast): 0.418 µM
TGI (MCF7 breast): > 100 µM
GI50 (MDA-MB-231 breast): 4.61 µM
TGI (MDA-MB-231 breast): > 37.8 µM
GI50 (MDA-MB-435): 1.18 µM
TGI (MDA-MB-435): 2.57 µM
GI50 (MDA-N): 1.74 µM
TGI (MDA-N): 4.01 µM
GI50 (MOLT-4 leukemia): 0.788 µM
TGI (MOLT-4 leukemia): > 100 µM
GI50 (NCI-H226 lung): 6.27 µM
TGI (NCI-H226 lung): 22.3 µM
GI50 (NCI-H23 lung): 1.47 µM
TGI (NCI-H23 lung): 4.28 µM
GI50 (NCI-H460 lung): 1.07 µM
GI50 (NCI-H522 lung): 0.429 µM
TGI (NCI-H522 lung): 2.01 µM
GI50 (NCI/ADR-RES ovarian): 2.22 µM
TGI (NCI/ADR-RES ovarian): 7.92 µM
GI50 (OVCAR-3 ovarian): 0.3 µM
GI50 (OVCAR-4 ovarian): 1.94 µM
TGI (OVCAR-4 ovarian): 8.5 µM
GI50 (OVCAR-5 ovarian): 3.05 µM
TGI (OVCAR-5 ovarian): 8.92 µM
GI50 (OVCAR-8 ovarian): 1.69 µM
TGI (OVCAR-8 ovarian): 7.08 µM
GI50 (PC-3 prostate): 2.73 µM
TGI (PC-3 prostate): 12.8 µM
GI50 (RPMI-8226 leukemia): 1.2 µM
TGI (RPMI-8226 leukemia): 4.22 µM
GI50 (RXF 393 renal): 2.47 µM
TGI (RXF 393 renal): 9.91 µM
GI50 (SF-268 CNS): 3.27 µM
TGI (SF-268 CNS): 14.9 µM
GI50 (SF-295 CNS): 2.34 µM
TGI (SF-295 CNS): 6.44 µM
GI50 (SF-539 CNS): 3.28 µM
TGI (SF-539 CNS): 10.3 µM
GI50 (SK-MEL-2 melanoma): 1.18 µM
TGI (SK-MEL-2 melanoma): 4.16 µM
GI50 (SK-MEL-28 melanoma): 10.2 µM
TGI (SK-MEL-28 melanoma): 22.3 µM
GI50 (SK-MEL-5 melanoma): 0.578 µM
TGI (SK-MEL-5 melanoma): 1.76 µM
GI50 (SK-OV-3 ovarian): 8.57 µM
TGI (SK-OV-3 ovarian): 25.7 µM
GI50 (SN12C renal): 2.44 µM
TGI (SN12C renal): 6.54 µM
GI50 (SNB-19 CNS): 4.2 µM
TGI (SNB-19 CNS): 11.2 µM
GI50 (SNB-75 CNS): 2.32 µM
TGI (SNB-75 CNS): 5.71 µM
GI50 (SW-620 colon): 1.32 µM
TGI (SW-620 colon): 3.88 µM
GI50 (T-47D breast): 2.26 µM
TGI (T-47D breast): 5.99 µM
GI50 (TK-10 renal): 5.03 µM
TGI (TK-10 renal): > 64.8 µM
GI50 (U251 CNS): 1.66 µM
TGI (U251 CNS): 7.13 µM
GI50 (UACC-257 melanoma): 1.06 µM
TGI (UACC-257 melanoma): 4.33 µM
GI50 (UACC-62 melanoma): 3.88 µM
TGI (UACC-62 melanoma): 10.5 µM
GI50 (UO-31 renal): 2.02 µM
TGI (UO-31 renal): 8.45 µM
